Source: ChEMBL document CHEMBL5506074, “Discovery and Optimization of Tetrahydroisoquinoline Derivatives To Enhance Lysosome Biogenesis as Preclinical Candidates for the Treatment of Alzheimer's Disease” (J Med Chem, 2024)
Values belong to the compound of their own block, whether it stands above or below them. The source made the active and inactive calls. The rule behind the calls is not given here.

Assays:
HeLa [1] = assay: Upregulation of CTSD mRNA expression in TFEB knockout human HeLa cells at 10 uM incubated for 24 hrs by qRT-PCR analysis; type: functional, cell-based
HeLa [2] = assay: Induction of lysosome biogenesis in human HeLa cells assessed as increase in number of acidified lysosomes at 10 uM incubated for 24 hrs by LysiTracker red staining based flow cytometry analysis; type: functional, cell-based
[3] = Oral bioavailability in ICR mouse at 20 mg/kg measured upto 24 hrs by LC-MS/MS analysis; type: ADME, organism-based; conditions: ICR, in vivo
[4] = Induction of TFEB nuclear translocation in human HeLa cells expressing EGFP at 10 uM measured at 3 hrs by fluorescence microscopic analysis; type: functional
HeLa [5] = assay: Upregulation of LC3B mRNA expression in TFEB knockout human HeLa cells at 10 uM incubated for 24 hrs by qRT-PCR analysis; type: functional, cell-based
HeLa [6] = assay: Upregulation of ATG2A mRNA expression in human HeLa cells at 10 uM incubated for 24 hrs by qRT-PCR analysis; type: functional, cell-based
[7] = Half life in ICR mouse at 20 mg/kg, po measured upto 24 hrs by LC-MS/MS analysis; type: ADME, organism-based; conditions: in vivo
HeLa [8] = assay: Upregulation of UVRAG mRNA expression in human HeLa cells at 10 uM incubated for 24 hrs by qRT-PCR analysis; type: functional, cell-based
HeLa [9] = assay: Upregulation of LAMP1 mRNA expression in human HeLa cells at 10 uM incubated for 24 hrs by qRT-PCR analysis; type: functional, cell-based
HeLa [10] = assay: Upregulation of HEXA mRNA expression in human HeLa cells at 10 uM incubated for 24 hrs by qRT-PCR analysis; type: functional, cell-based
HeLa [11] = assay: Upregulation of […] mRNA expression in TFEB knockout human HeLa cells at 10 uM incubated for 24 hrs by qRT-PCR analysis; type: functional, cell-based
HeLa [12] = assay: Upregulation of GLA mRNA expression in human HeLa cells at 10 uM incubated for 24 hrs by qRT-PCR analysis; type: functional, cell-based
[13] = AUC (0 to t) in ICR mouse at 5 mg/kg, iv measured upto 24 hrs by LC-MS/MS analysis; type: ADME, organism-based; conditions: ICR, in vivo
[14] = Bioavailability in ICR mouse at 5 mg/kg, ip measured upto 24 hrs by LC-MS/MS analysis; type: ADME, organism-based; conditions: in vivo
[15] = AUC (0 to t) in ICR mouse at 20 mg/kg, po measured upto 24 hrs by LC-MS/MS analysis; type: ADME, organism-based; conditions: ICR, in vivo
[16] = Clearance in ICR mouse at 5 mg/kg, iv measured upto 24 hrs by LC-MS/MS analysis; type: ADME, organism-based; conditions: in vivo
HeLa [17] = assay: Upregulation of CTSD mRNA expression in human HeLa cells at 10 uM incubated for 24 hrs by qRT-PCR analysis; type: functional, cell-based
HeLa [18] = assay: Upregulation of CTSF mRNA expression in TFEB knockout human HeLa cells at 10 uM incubated for 24 hrs by qRT-PCR analysis; type: functional, cell-based
HeLa [19] = assay: Upregulation of OPTN mRNA expression in TFEB knockout human HeLa cells at 10 uM incubated for 24 hrs by qRT-PCR analysis; type: functional, cell-based
HeLa [20] = assay: Upregulation of UVRAG mRNA expression in TFEB knockout human HeLa cells at 10 uM incubated for 24 hrs by qRT-PCR analysis; type: functional, cell-based
HeLa [21] = assay: Upregulation of p62 mRNA expression in human HeLa cells at 10 uM incubated for 24 hrs by qRT-PCR analysis; type: functional, cell-based
[22] = Tmax in ICR mouse at 20 mg/kg, po measured upto 24 hrs by LC-MS/MS analysis; type: ADME, organism-based; conditions: in vivo
HeLa [23] = assay: Upregulation of CTSF mRNA expression in human HeLa cells at 10 uM incubated for 24 hrs by qRT-PCR analysis; type: functional, cell-based
HeLa [24] = assay: Upregulation of […] mRNA expression in human HeLa cells at 10 uM incubated for 24 hrs by qRT-PCR analysis; type: functional, cell-based
[25] = Ratio of drug concentration in ICR mouse brain to plasma at 10 mg/kg, ip measured upto 24 hrs by LC-MS/MS analysis; type: ADME, organism-based; conditions: brain and plasma, read-out: BPR
HeLa [26] = assay: Upregulation of OPTN mRNA expression in human HeLa cells at 10 uM incubated for 24 hrs by qRT-PCR analysis; type: functional, cell-based
[27] = Volume of distribution at steady state in ICR mouse measured upto 24 hrs by LC-MS/MS analysis; type: ADME; conditions: in vivo, read-out: Vdss
HeLa [28] = assay: Upregulation of LAMP1 mRNA expression in TFEB knockout human HeLa cells at 10 uM incubated for 24 hrs by qRT-PCR analysis; type: functional, cell-based
[29] = Cmax in ICR mouse at 20 mg/kg, po measured upto 24 hrs by LC-MS/MS analysis; type: ADME, organism-based; conditions: in vivo
[30] = Induction of TFEB nuclear translocation in human HeLa cells expressing EGFP at 30 uM measured at 6 hrs by fluorescence microscopic analysis; type: functional
[31] = Induction of TFEB nuclear translocation in human HeLa cells expressing EGFP at 30 uM measured at 3 hrs by fluorescence microscopic analysis; type: functional
HeLa [32] = assay: Upregulation of LC3B mRNA expression in human HeLa cells at 10 uM incubated for 24 hrs by qRT-PCR analysis; type: functional, cell-based
[33] = Tmax in ICR mouse at 10 mg/kg, ip measured upto 24 hrs by LC-MS/MS analysis; type: ADME, organism-based; conditions: in vivo
[34] = Ratio of drug concentration in ICR mouse brain to plasma at 5 mg/kg, iv measured upto 24 hrs by LC-MS/MS analysis; type: ADME, organism-based; conditions: brain and plasma, read-out: BPR
[35] = AUC (0 to t) in ICR mouse at 10 mg/kg, ip measured upto 24 hrs by LC-MS/MS analysis; type: ADME, organism-based; conditions: in vivo
HeLa [36] = assay: Upregulation of Atg16L1 mRNA expression in human HeLa cells at 10 uM incubated for 24 hrs by qRT-PCR analysis; type: functional, cell-based
[37] = Induction of TFEB nuclear translocation in human HeLa cells expressing EGFP at 10 uM measured at 6 hrs by fluorescence microscopic analysis; type: functional
HeLa [38] = assay: Upregulation of HEXA mRNA expression in TFEB knockout human HeLa cells at 10 uM incubated for 24 hrs by qRT-PCR analysis; type: functional, cell-based
HeLa [39] = assay: Upregulation of p62 mRNA expression in TFEB knockout human HeLa cells at 10 uM incubated for 24 hrs by qRT-PCR analysis; type: functional, cell-based
HeLa [40] = assay: Upregulation of Atg16L1 mRNA expression in TFEB knockout human HeLa cells at 10 uM incubated for 24 hrs by qRT-PCR analysis; type: functional, cell-based
[41] = Half life in ICR mouse at 10 mg/kg, ip measured upto 24 hrs by LC-MS/MS analysis; type: ADME, organism-based; conditions: in vivo
[42] = Cmax in ICR mouse at 10 mg/kg, ip measured upto 24 hrs by LC-MS/MS analysis; type: ADME, organism-based; conditions: in vivo
HeLa [43] = assay: Upregulation of ATG2A mRNA expression in TFEB knockout human HeLa cells at 10 uM incubated for 24 hrs by qRT-PCR analysis; type: functional, cell-based
HeLa [44] = assay: Upregulation of GLA mRNA expression in TFEB knockout human HeLa cells at 10 uM incubated for 24 hrs by qRT-PCR analysis; type: functional, cell-based
HeLa [45] = assay: Induction of cell cycle arrest in human HeLa cells assessed as effect on CDK7 level at 10 uM incubated for 12 hrs by qRT-PCR analysis; type: functional, cell-based
HeLa [46] = assay: Cytotoxicity against human HeLa cells assessed as effect on cell viability at 10 uM incubated for 24 hrs; type: functional, cell-based
HeLa [47] = assay: Induction of cell cycle arrest in human HeLa cells assessed as effect on CDK4 level at 10 uM incubated for 12 hrs by qRT-PCR analysis; type: functional, cell-based
HeLa [48] = assay: Induction of cell cycle arrest in human HeLa cells assessed as effect on LAMP1 level at 10 uM incubated for 12 hrs by qRT-PCR analysis; type: functional, cell-based
HeLa [49] = assay: Induction of cell cycle arrest in human HeLa cells assessed as effect on p21 level at 10 uM incubated for 12 hrs by qRT-PCR analysis; type: functional, cell-based
SH-SY5Y = assay: Cytotoxicity against human SH-SY5Y cells assessed as effect on cell viability at 10 uM incubated for 24 hrs; type: functional, cell-based
[50] = system: Primary neocortical neuron; assay: Cytotoxicity against mouse Primary neocortical neuron cells assessed as effect on cell viability at 10 uM incubated for 24 hrs; type: functional, cell-based
[51] = biological target: Cyclin-dependent kinase 9 (Homo sapiens) (UniProt P50750); assay: Inhibition of CDK9 in human SH-SY5Y cells assessed as decrease in Rpb1 phosphorylation at 10 uM incubated for 6 hrs by immunoblotting analysis; type: cell-based
Cyclin-dependent kinase 9 (Homo sapiens), sequence (P50750 whole entry): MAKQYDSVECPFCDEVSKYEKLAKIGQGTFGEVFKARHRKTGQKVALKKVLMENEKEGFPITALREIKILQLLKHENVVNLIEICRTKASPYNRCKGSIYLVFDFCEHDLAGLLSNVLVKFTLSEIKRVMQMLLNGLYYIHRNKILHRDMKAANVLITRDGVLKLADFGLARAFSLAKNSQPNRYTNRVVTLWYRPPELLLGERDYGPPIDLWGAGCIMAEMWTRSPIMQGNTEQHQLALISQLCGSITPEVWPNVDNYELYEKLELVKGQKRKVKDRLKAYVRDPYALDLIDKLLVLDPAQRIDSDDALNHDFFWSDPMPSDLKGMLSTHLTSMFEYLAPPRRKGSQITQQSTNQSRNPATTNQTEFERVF

bioavailability [3]: 0.67% | half-life [7]: 216 min | AUC(0-t) at 24 h [13]: 604 ng·h/mL | bioavailability [14]: 50.4% | AUC(0-t) at 24 h [15]: 16.3 ng·h/mL | clearance [16]: 140 mL/min/kg | Tmax [22]: 25.2 min | Kp at 24 h [25]: 1.9 | Vd [27]: 8.66 L/kg | Cmax [29]: 9.14 ng/mL | Tmax [33]: 10.8 min | Kp at 24 h [34]: 2.2 | AUC(0-t) at 24 h [35]: 609 ng·h/mL | half-life [41]: 58.2 min | Cmax [42]: 620 ng/mL
SMILES: COc1cc2c(cc1OC)C(CCc1c[nH]c3ccccc13)N(CC1CCOCC1)CC2 (stereo not drawn)
Activity (HeLa [1]): Active | Activity (HeLa [2]): Active | Activity [4]: 27% | Activity (HeLa [5]): Active | Activity (HeLa [6]): Active | Activity (HeLa [8]): Active | Activity (HeLa [9]): Active | Activity (HeLa [10]): Active | Activity (HeLa [11]): Active | Activity (HeLa [12]): Active | Activity (HeLa [17]): Active | Activity (HeLa [18]): Active | Activity (HeLa [19]): Active | Activity (HeLa [20]): Active | Activity (HeLa [21]): Active | Activity (HeLa [23]): Active | Activity (HeLa [24]): Active | Activity (HeLa [26]): Active | Activity (HeLa [28]): Active | Activity [30]: 85% | Activity [31]: 85% | Activity (HeLa [32]): Active | Activity (HeLa [36]): Active | Activity [37]: 47% | Activity (HeLa [38]): Active | Activity (HeLa [39]): Active | Activity (HeLa [40]): Active | Activity (HeLa [43]): Active | Activity (HeLa [44]): Active

SMILES: CC(C)N1CCc2cc3c(cc2C1CCc1c[nH]c2ccccc12)OCO3 (stereo not drawn)
Activity (HeLa [2]): Active | Activity [4]: 22% | Activity [30]: 75% | Activity [31]: 70% | Activity [37]: 33%

AUC(0-t) at 24 h [13]: 21.5 ng·h/mL | Vd [27]: 97.5 L/kg | inhibition [51]: Active
SMILES: COc1ccc2[nH]cc(CCC3c4cc(OC)c(OC)cc4CCN3CC3CCOCC3)c2c1 (stereo not drawn)
Activity (HeLa [1]): Active | Activity (HeLa [2]): Active | Activity (HeLa [45]): inactive | Activity [4]: 74% | Activity (HeLa [5]): Active | Activity (HeLa [6]): Active | Activity (HeLa [46]): Active | Activity (HeLa [8]): Active | Activity (HeLa [9]): Active | Activity (HeLa [10]): Active | Activity (HeLa [11]): Active | Activity (HeLa [12]): Active | Activity (HeLa [47]): inactive | Activity (HeLa [48]): inactive | Activity (HeLa [49]): inactive | Activity (HeLa [17]): Active | Activity (HeLa [18]): Active | Activity (HeLa [19]): Active | Activity (HeLa [20]): Active | Activity (SH-SY5Y): Active | Activity (HeLa [21]): Active | Activity (HeLa [23]): Active | Activity (HeLa [24]): Active | Activity (HeLa [26]): Active | Activity (HeLa [28]): Active | Activity [30]: 98% | Activity [31]: 96% | Activity [50]: Active | Activity (HeLa [32]): Active | Activity (HeLa [36]): Active | Activity [37]: 76% | Activity (HeLa [38]): Active | Activity (HeLa [39]): Active | Activity (HeLa [40]): Active | Activity (HeLa [43]): Active | Activity (HeLa [44]): Active
